{"source": "BindingDB's records for patent US10322118", "about": "(Dartmouth College, 2019)", "note": "pIC50: −log10 of the molar value.", "data": [{"biological_target": "T1, Bifunctional epoxide hydrolase 2 (Homo sapiens, UniProt P34913)", "T1 sequence (P34913 whole entry)": "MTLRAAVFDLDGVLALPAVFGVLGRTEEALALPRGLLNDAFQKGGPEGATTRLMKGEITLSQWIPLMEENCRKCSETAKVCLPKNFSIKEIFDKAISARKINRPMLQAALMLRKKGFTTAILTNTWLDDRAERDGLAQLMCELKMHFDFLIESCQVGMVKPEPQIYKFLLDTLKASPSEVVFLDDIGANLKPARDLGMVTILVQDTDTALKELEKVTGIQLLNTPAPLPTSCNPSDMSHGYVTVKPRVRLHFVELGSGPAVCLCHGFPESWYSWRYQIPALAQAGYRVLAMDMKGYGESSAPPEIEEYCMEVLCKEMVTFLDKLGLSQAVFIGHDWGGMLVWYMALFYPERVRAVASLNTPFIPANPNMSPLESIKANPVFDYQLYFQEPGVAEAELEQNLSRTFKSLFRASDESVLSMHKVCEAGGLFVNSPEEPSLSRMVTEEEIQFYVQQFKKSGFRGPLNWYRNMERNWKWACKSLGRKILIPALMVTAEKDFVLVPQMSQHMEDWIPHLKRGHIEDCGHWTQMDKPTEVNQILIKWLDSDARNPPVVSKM", "assay": "Biochemical Characterization of Cif Inhibitors", "values": [{"smiles": "CCC(=O)Oc1ccc(NC(=O)NC23CC4CC(CC(C4)C2)C3)cc1", "note": "[US10322118, Urea-Based Scaffold Entry 1]", "pIC50": 8.42}, {"smiles": "CCCCCCCCCCCCS(C)(=O)=O", "note": "[US10322118, Urea-Based Scaffold Entry 8]", "pIC50": 4.48}]}, {"biological_target": "T2, Putative hydrolase (Pseudomonas aeruginosa (strain UCBPP-PA14), UniProt A0A0H2ZD27)", "T2 sequence (A0A0H2ZD27 whole entry)": "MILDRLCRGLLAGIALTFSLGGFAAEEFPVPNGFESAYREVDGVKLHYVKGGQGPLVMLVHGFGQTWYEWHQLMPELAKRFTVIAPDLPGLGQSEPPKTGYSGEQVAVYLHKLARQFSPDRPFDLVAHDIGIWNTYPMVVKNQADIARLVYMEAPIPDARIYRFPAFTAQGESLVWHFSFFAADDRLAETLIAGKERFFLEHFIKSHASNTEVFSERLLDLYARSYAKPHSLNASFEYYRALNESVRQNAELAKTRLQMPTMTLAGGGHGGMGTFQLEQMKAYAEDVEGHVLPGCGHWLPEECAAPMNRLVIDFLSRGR", "assay": "Biochemical Characterization of Cif Inhibitors", "values": [{"smiles": "O=C(O)Cc1cc(I)c(Oc2cc(I)c(O)c(I)c2)c(I)c1", "note": "[US10322118, Entry 1]", "pIC50": 4.70}, {"smiles": "O=C(O)Cc1cc(I)c(Oc2ccc(O)cc2)c(I)c1", "note": "[US10322118, Entry 3]", "pIC50": 4.00}, {"smiles": "Cc1cc(OCC(=O)O)cc(C)c1Cc1ccc(O)c(C(C)C)c1", "note": "[US10322118, Entry 7]", "pIC50": "< 4.00"}, {"smiles": "Oc1ccc(Oc2ccccc2)cc1", "note": "[US10322118, Entry 9]", "pIC50": "< 4.00"}, {"smiles": "Nc1ccc(Oc2ccccc2)cc1", "note": "[US10322118, Entry 10]", "pIC50": "< 4.00"}, {"smiles": "O=C(O)c1ccc(Oc2ccccc2)cc1", "note": "[US10322118, Entry 11]", "pIC50": "< 4.00"}, {"smiles": "CCC(=O)Oc1ccc(NC(=O)NC23CC4CC(CC(C4)C2)C3)cc1", "note": "[US10322118, Urea-Based Scaffold Entry 1]", "pIC50": "< 4.00"}, {"smiles": "Cc1cc(C)cc(NC(=O)NC(=O)c2c(F)cccc2F)c1", "note": "[US10322118, Urea-Based Scaffold Entry 3]", "pIC50": 5.74}, {"smiles": "O=C(NC(=O)c1c(F)cccc1F)Nc1cc(Cl)cc(Cl)c1", "note": "[US10322118, Urea-Based Scaffold Entry 4]", "pIC50": 5.82}, {"smiles": "CN(C(=O)NC(=O)c1c(F)cccc1F)c1ccc(Cl)cc1", "note": "[US10322118, Urea-Based Scaffold Entry 7]", "pIC50": "< 4.00"}, {"smiles": "Cc1ccc(-c2cc(C(F)(F)F)nn2-c2ccc(S(N)(=O)=O)cc2)cc1", "note": "[US10322118, Urea-Based Scaffold Entry 9]", "pIC50": 5.13}]}]}
